Results reported in patent US7732398B2, “Medicinal uses of mu-opioid receptor agonists” (Cornell Research Foundation, Inc., priority 2000, dated 2010).

Key:
rats (F344 strain) = experiment: Myocardial stunning during myocardial ischemia and reperfusion in rats; type: in vivo, rat
Procedure: In the [Dmt^1]DALDA group, [Dmt^1]DALDA was administered as a 10 nmol bolus, followed by 10 nmol/h continuous infusion. […] The control group received the same volume of saline as a bolus and continuous infusion.
The left anterior descending artery was occluded by applying tension to the sling through a polyethylene 10 tubing and clamping. Successful occlusion was confirmed by typical electrocardiographic changes and wall motion abnormality on echocardiogram. After 10 min of myocardial ischemia, the sling was released to reperfuse the left anterior descending artery. Time to recovery of left ventricular function was defined as the duration from the reperfusion to recovery of fractional shortening above 90% of baseline. Duration of reperfusion arrhythmia was defined as the duration of time to the last three consecutive premature ventricular contractions (salvo) after reperfusion. All procedures were performed in a blinded manner, with the groups assigned letters and their identities unknown to the operators. Likewise, the two independent investigators analyzing the data were blind to the treatment assignments.
All procedures and care of animals were in accordance with guidelines approved by the Institution for the Care and Use of Animals at Weill Medical College of Cornell University. Following anesthesia with 0.2 mg of ketamine and 1 mg xylazine given intraperitoneally, tracheostomy with blunt dissection of the neck and intubation with polyethylene tubing 240 was performed. Mechanical ventilation was started with room air at 90 respirations per min. The internal jugular vein was surgically exposed and a polyethylene tubing was inserted for drug administration. Left thoracotomy was performed through fifth intercostal space to expose the heart. After removal of the pericardium, a 6.0 Nylon sling was placed around the proximal left anterior descending artery just below the level of the left atrial appendage, to be used for occlusion of the coronary artery. Continuous echocardiogram was obtained by inserting a 10 French intracardiac probe into the esophagus (Acuson-Sequoia C256) and a two-dimensional echocardiogram was recorded continuously, with 10 MHz echo signals throughout the procedure. Electrocardiographic monitoring from a standard lead II (AC AMP 700) was digitally recorded throughout the procedure.
M-mode recordings were obtained for the analysis of wall motion and left ventricular systolic function. Left ventricular end diastolic and end systolic dimensions were measured at the level of papillary muscle. Fractional shortening as a measure of the global left ventricular function was calculated as the difference between left ventricular end diastolic and end systolic dimensions divided by end diastolic dimension×100. Systolic wall thickening of the anterior wall in percent, as a measure of the ischemic regional wall motion, was calculated as the difference between left ventricular end diastolic and end systolic wall thickness divided by end diastolic wall thickness×100.
Echocardiographic and electrocardiographic data are presented as mean value±SD. ANOVA was used to compare among the groups. A p-value<0.05 was considered significant.

[1] = tested on: 5-HT uptake in spinal cord synaptosomes; experiment: Inhibition of [3H]5-HT uptake in spinal cord synaptosomes; type: biochemical, guinea pig; conditions: data not shown
Procedure: Adult female Hartley strain guinea pigs (440-550 g) were decapitated and the spinal cords taken out. A crude synaptosomal (P2) fraction was prepared as described previously (Lonart and Johnson 1995; Li 2000). Briefly, the tissue was minced and homogenized in 10 ml of ice-cold 0.32 M sucrose solution (pH7.4) with a Thomas B075 homogenizor, clearance 0.13-0.18 mm. The homogenate was centrifuged for 10 min at 1,200×g in a Megafuge centrifuge at 4° C. The resulting supernatant was then centrifuged at 20,000×g for 20 min in JA-17 rotor of a Beckman J2-21 centrifuge at 4° C. and the supernatant discarded. The pellet (P2) was gently resuspended in aerated (100% O2) ice-cold buffer containing (in mM):HEPES 20, NaCl 140, KCl 5, NaHCO3 5, MgCl2 1, Na2HPO4 1.2, CaCl2 1.2 and glucose 10, pH 7.4, and centrifuge at 3,000×g for 12 min in a Megafuge at 4° C. Pour out the supernatant. […] Protein concentration was determined by the method of Bradford (1976) at 595 nm using bovine serum albumin as a standard in a Spectra Max plus machine (Molecular Device Co. Sunnyvale, Calif.)
Add buffer 0.6 ml in tubes, synaptosome solution 0.2 ml (about 100 μg), then varying concentration of drug 0.1 ml (each concentration performed in triplicate), put in water bath for pre-incubation for 10 min at 37° C. […] Filter-bound radioactivity was counted by liquid scintillation counter (Beckman LS6001). […]

awake sheep = experiment: Blood pressure in sheep after intravenous administration; type: in vivo
Excerpt: Even a brief period of increased blood pressure may be a risk factor in patients with hypertension, compromised myocardial function (such as after a myocardial infarction) or patients who are at risk for strokes. The response is short-lasting because the receptor desensitizes rapidly. We can take advantage of this rapid desensitization and eliminate the blood pressure response by administering the drug as a slow intravenous infusion rather than as a rapid bolus injection.
[…] […] Thus the increase in blood pressure can be avoided by using a slow intravenous infusion of [Dmt^1]DALDA.

[2] = known value (Szeto et al., 1998); cited from earlier work
[3] = Five min. after reperfusion, listed as morphine

`CN1CC[C@]23c4c5ccc(O)c4O[C@H]2[C@@H](O)C=C[C@H]3[C@H]1C5` [Morphine, morphine, reference compound] gave an Ejection fraction (rats (F344 strain); After ligation) of 31.3 ± 4.2%, a Fractional shortening (rats (F344 strain); After ligation) of 21.0 ± 3.9% and a Systolic wall thickening (rats (F344 strain); After ligation) of 7.8 ± 6.5%. The Ejection fraction (rats (F344 strain); Baseline) was 64.6 ± 6.0%, the Fractional shortening (rats (F344 strain); Baseline) was 46.5 ± 3.6% and the Systolic wall thickening (rats (F344 strain); Baseline) was 47.7 ± 4.5%. It also gave an Ejection fraction (rats (F344 strain); Five min. after reperfusion) of 39.5 ± 11.1%, a Fractional shortening (rats (F344 strain); Five min. after reperfusion) of 39.1 ± 6.4% and a Systolic wall thickening (rats (F344 strain); Five min. after reperfusion) of 33.7 ± 7.5%. It also gave a Fractional shortening (rats (F344 strain); [3]) of 39.1±6.4%, a Systolic wall thickening (rats (F344 strain); [3]) of 33.7±7.5% and a Fractional shortening (rats (F344 strain); Ten min. after reperfusion) of 45.3 ± 6.2%. The Systolic wall thickening (rats (F344 strain); Ten min. after reperfusion) was 42.2 ± 5.8%, the “Time to recovery of left ventricular function” value (rats (F344 strain); from reperfusion to fractional shortening above 90% of baseline, [Dmt1]DALDA 10 nmol + 10 nmol/h, morphine 100 nmol + 100 nmol/h iv) was 6.0 ± 2.5 min and the “duration of reperfusion arrhythmia” value (rats (F344 strain); time to last salvo after reperfusion) was 5.8 ± 3.9 min.
With `Cc1cc(O)cc(C)c1C[C@H](N)C(=O)N[C@H](CCCNC(=N)N)C(=O)N[C@@H](Cc1ccccc1)C(=O)N[C@@H](CCCCN)C(N)=O` [[Dmt^1]DALDA, 2′,6′-dimethyl-Tyr-D-Arg-Phe-Lys-NH2] the “effect on 5-HT uptake” value [1] was “Neither DALDA nor [Dmt^1]DALDA had any effect”, the blood pressure (awake sheep; constant rate intravenous infusion 0.06-0.6 mg/kg/h for as long as 4 h) was “no significant change in blood pressure” and the blood pressure (awake sheep; intravenous bolus 0.003-0.009 mg/kg, awake sheep) was “transient increase in blood pressure”. The “potency relative to DALDA in increasing blood pressure” value (awake sheep; sheep, unpublished data) was 100 fold, the Ejection fraction (rats (F344 strain); After ligation) was 31.4 ± 5.6% and the Fractional shortening (rats (F344 strain); After ligation) was 27.1 ± 4.0%. The Systolic wall thickening (rats (F344 strain); After ligation) was 7.6 ± 4.7%, the Ejection fraction (rats (F344 strain); Baseline) was 64 ± 9.2% and the Fractional shortening (rats (F344 strain); Baseline) was 47.8 ± 4.2%. The Systolic wall thickening (rats (F344 strain); Baseline) was 47.0 ± 6.1%, the Ejection fraction (rats (F344 strain); Five min. after reperfusion) was 48.9 ± 10.1% and the Fractional shortening (rats (F344 strain); Five min. after reperfusion) was 45.7±2.4%. For the same molecule, the Systolic wall thickening (rats (F344 strain); Five min. after reperfusion) was 48.3±7.6%, the Fractional shortening (rats (F344 strain); Ten min. after reperfusion) was 44.0±3.8% and the Systolic wall thickening (rats (F344 strain); Ten min. after reperfusion) was 50.5±8.4%. For the same molecule, the “effect on contractility during preischemic or postischemic periods” value (rats (F344 strain); review of continuous echocardiogram) was “no effects of [Dmt^1]DALDA on the contractility”.
For `NCCCC[C@H](NC(=O)[C@H](Cc1ccccc1)NC(=O)[C@@H](CCCN=C(N)N)NC(=O)[C@@H](N)Cc1ccc(O)cc1)C(N)=O` [DALDA, H-Tyr-D-Arg-Phe-Lys-NH2], the “effect on 5-HT uptake” value [1] is listed as “Neither DALDA nor [Dmt^1]DALDA had any effect” and the elimination half-life [2] is listed as roughly 1.5 h.
